What is called EC50 is the concentration at which the effect is half-maximal.

The text below walks through data of BindingDB's records for doi:10.1021/acs.jmedchem.7b01490 (Astrazeneca, 2018).

A short description of this assay: Inhibition of CHK1 in human HT29 cells assessed as abrogation of camptothecin-induced G2/M phase arrest.
With `C[C@@H]1CC[C@H](Nc2ncc(C(N)=O)c3sc(-c4ccccc4)cc23)CN1`, the EC50 was determined as 30 nM. To `C[C@@H]1CC[C@H](Nc2ncc(C(N)=O)c3sc(-c4ccccc4)cc23)[C@H](C)N1` belongs 10 nM; to `NC(=O)c1cnc(N[C@H]2CCCN[C@@H]2CCO)c2cc(-c3ccccc3)sc12`, 3300 nM; to `C[C@@H]1NCCC[C@@H]1Nc1ncc(C(N)=O)c2sc(-c3ccccc3)cc12`, 50 nM.

With `C[C@H]1NCCC[C@@H]1Nc1ncc(C(N)=O)c2sc(-c3ccccc3)cc12`, the EC50 is 8 nM. For the compound `NC(=O)c1cnc(N(CCO)[C@H]2CCCNC2)c2cc(-c3ccccc3)sc12`, the EC50 came out at 3700 nM. With `CCN(c1ncc(C(N)=O)c2sc(-c3ccccc3)cc12)[C@H]1CCCNC1` the figure was 110 nM; with `CN(c1ncc(C(N)=O)c2sc(-c3ccccc3)cc12)[C@H]1CCCNC1`, 840 nM. To `NC(=O)c1cnc(O[C@H]2CCCNC2)c2cc(-c3ccccc3)sc12` belongs 340 nM; to `NC(=O)c1cnc(N[C@H]2CCCNC2)c2cc(-c3ccccc3)oc12`, 390 nM; to `NC(=O)c1ccc(N[C@H]2CCCNC2)c2cc(-c3ccc(Cl)cc3)[nH]c12`, 70 nM.

`NC(=O)c1ccc(N[C@H]2CCCNC2)c2cc(-c3cccc(F)c3)[nH]c12`: the EC50 worked out at 30 nM. For `NC(=O)c1ccc(N[C@H]2CCCNC2)c2cc(-c3ccccc3)[nH]c12`, the EC50 was found to be 53 nM. With `NC(=O)c1cnc(N[C@H]2CCCNC2)c2cc(-c3cnn(Cc4ccccc4)c3)sc12` the figure was 60 nM. Regarding `Cn1cc(-c2cc3c(N[C@H]4CCCNC4)ncc(C(N)=O)c3s2)cn1`, the EC50 came to 150 nM. Take `NC(=O)c1cnc(N[C@H]2CCCNC2)c2cc(-c3cn[nH]c3)sc12`: the EC50 amounted to 2300 nM. As for `NC(=O)c1cnc(N[C@H]2CCCNC2)c2cc(-c3cccs3)sc12`, the EC50 was determined as 12 nM.

On to `NC(=O)c1cnc(N[C@H]2CCCNC2)c2cc(-n3ccnc3)sc12`, for which the EC50 turned out to be 10000 nM. With `NC(=O)c1cnc(N[C@H]2CCCNC2)c2cc(-c3ccsc3)sc12` the figure was 10 nM; with `NC(=O)c1cnc(N[C@H]2CCCNC2)c2cc(-c3cccc(F)c3)sc12`, 24 nM; with `NC(=O)c1cnc(N[C@H]2CNCC[C@@H]2O)c2cc(-c3ccccc3)sc12`, 410 nM. As to `NC(=O)c1cnc(SC2CCCNC2)c2cc(-c3ccccc3)sc12` (stereo not given), the EC50 turned out to be 210 nM. Consider `NC(=O)c1ccc(N[C@H]2CCCNC2)c2cc(-c3ccc(F)cc3)[nH]c12`, for which the EC50 is 40 nM.

On to `CN1CCC[C@H](Nc2ncc(C(N)=O)c3sc(-c4ccccc4)cc23)C1`, for which the EC50 came to 880 nM. Turning to `NC(=O)c1cnc(N[C@H]2CCCNC2)c2cc(-c3ccccc3)sc12` [(S)-2-phenyl-4-(piperidin-3-ylamino)thieno[3,2-c]pyridine-7-carboxamide], the 50% effective concentration (EC50) was 26 nM.
